From patent US20110171332A1, “LEUCOJUM BULB EXTRACTS AND USE THEREOF” (I.B.R. ISRAELI BIOTECHNOLOGY RESEARCH LTD., priority 2008, published 2011) come the findings set out here.

This experiment has as its system nerve-muscle co-culture. Description: Muscle contraction frequency in nerve-muscle co-culture. Conditions: carisoprodol 5×10^−3M; for Contraction (%): % of contractions at T0; for Contraction (%) / Result: single wells. It counts as cell-based, human, rat. The protocol:
The nerve-muscle co-culture model is a model suited to studying the influence of a substance on a muscle contraction frequency. The number of muscular contractions is counted during a given time, before and after applying the examined substance to the co-culture. The number of contractions in the presence of the substance is expressed in percentage compared to the initial number of contractions. An inhibitory effect on muscle contraction is determined if a significant reduction or blocking of the muscular contraction frequency is observed in at least 2 wells out of 3 wells containing the nerve-muscle co-culture.
Human muscular cells were seeded in 24-wells culture plates. Cells were incubated at 37° C., 5% CO2 during the entire culture duration.
After 5 days of culture, spinal cords were isolated from rat embryos, and were cut in small parts (explants). One explant per culture well was placed on the muscular cells, and both cell types were cultivated in 24-wells plate for 21 days.
During the cultivation period, the muscular cells merge and form muscular fibers. The motor neurons present in the spinal cord emit nervous extensions which contact the muscular fibers. Neuro-muscular junctions are formed and muscular contractions appear.
After 21 days of co-culture, the model was mature and functional. The muscular fibers innervated spontaneously and contracted in a regular way.
A stock solution of the test extract was prepared in the culture medium. This solution was applied to the nerve-muscle culture.
The culture medium alone served as a negative control.
The positive control was carisoprodol, a drug which blocks the muscular contraction in a reversible way. A stock solution of carisoprodol was prepared in DMSO at 1M. This solution was diluted at 1/200 into the culture medium (final concentration of 5×10^−3M). Three culture wells were used per treatment (control/test extract).
The trial started at the 21st day of the culture.
The microscope is equipped with a motorized stage piloted by a LUCIA software. It is also combined with a camera and connected to a computer allowing the recording of video sequences.
For each selected culture well, a muscle fiber showing regular contractions is referenced. The XY data of this fiber were registered using the LUCIA software. The frequency of the contractions of this fiber was manually counted during 30 seconds, and a video sequence was recorded (T0). The same operation was carried out for all wells.
The test extract and the references were applied to the nerve-muscle culture, and the trial system was incubated at 37° C., 5% CO2.
After 2 hours, 6 hours and 24 hours of incubation, the contraction frequency was counted again during 30 seconds and a video sequence was also recorded for each counting.
For each culture well, the number of muscular contractions counted in the presence of the examined extract is expressed in percentage compared to the number of contractions counted before extract application (T0).
When the frequency of contractions is in the range of between 80%-120% compared to T0, the modulation of the muscular contractions frequency is not considered as significant. This range is based on the fact that during the time, the muscular contraction frequency can vary slightly, independent on the conditions applied.
The results are expressed as follows: • No significant variation in the muscular contractions frequency: contractions percentage between 80 and 120%, symbolized by (=) • A significant reduction in the muscular contractions frequency: contractions percentage <80%, symbolized by (−). • Blocking of the muscular contractions frequencies: contractions percentage=0%, symbolized by (0) • A significant increase in the muscular contractions frequencies: contractions percentage >120%, symbolized by (+).
The product effect is assessed only if the same result is obtained in at least 2 out of 3 culture wells (i.e. 2 out of 3 muscle fibers).

As to `CCCC(C)(COC(N)=O)COC(=O)NC(C)C` (stereo not shown) [Carisoprodol, carisoprodol], the conclusion result is listed as “Blocked” (2 h incubation); “complete blockage” (2 h incubation, listed as carisoprodol); “Blocked” (6 h incubation); “complete blockage” (6 h incubation, listed as carisoprodol); “Blocked” (24 h incubation); “complete blockage” (24 h incubation, listed as carisoprodol). Moreover, the “Contraction (%)” value is, setting by setting: (2 h incubation) 0%; (6 h incubation) 0%; (24 h incubation) 0%. Further, the Result (2 h incubation) is 0 (Blocking of the muscular contractions frequencies: contractions percentage=0%), the Result (6 h incubation) is 0 (Blocking of the muscular contractions frequencies: contractions percentage=0%) and the Result (24 h incubation) is on record as 0 (Blocking of the muscular contractions frequencies: contractions percentage=0%). Besides, the “reversibility of the effect on muscle contractions after rinsing off” value (after rinsing off) is given as “reversible”.
